Target: T1, human AMPK α2β2γ3 (Homo sapiens, UniProt O43741+P54646+Q9UGI9)
T1 construct: expressed in transfected cells; host or cells: HEK293AD cells, MaxCyte bulk electroporation
Assay: Primary cellular assay: γ3 associated phospho-Thr172 AMPK detection (custom pAMPK Surefire AlphaLISA) in α2β2γ3 bulk transiently transfected HEK293 cells
Type: cell-based
Settings: activation of human AMPK α2β2γ3 (γ3 pThr172 AMPK signal) in transiently transfected HEK293 cells, 20 minutes compound incubation; for EC50: geometric mean EC50, read-out: Assay GMean EC50; for Assay GMean Asy. Max (%) / Emax: geometric mean of the asymptotic max; for Emax: 20 min, read-out: Assay GMean Asy. Max (%)
Description: Primary Cellular Assay—γ3 Associated Phospho-Thr172 AMPK Detection in α2β2γ3 Bulk Transiently Transfected HEK293 Cells
The cellular potencies of the compounds were evaluated using a custom pAMPK Surefire AlphaLISA designed to assess γ3 associated phospho-Thr172 AMPK and modulation by small molecules in AMPK α2β2γ3 transiently transfected HEK293 cells.
A pAMPK Surefire AlphaLISA (PE-ASLU-PAMPK) assay available through Perkin Elmer was modified to selectively assess γ3 pThr172 AMPK content (as opposed to total pThr172 AMPK) by labeling a γ3 antibody with a CaptSure™ tag and substituting it for the total α1c/α2 AMPK labeled antibodies in the kit. In the modified assay, the overall abundance of γ3 AMPK is recognized by the CaptSure γ3 antibody and the phosphorylated AMPK is recognized by biotinylated pThr172 antibody. Subsequent reactivity with streptavitin donor beads and anti CaptSure conjugated acceptor beads brings the molecules into close proximity. Upon excitation at 680 nm, the donor bead converts ambient oxygen to a more excited singlet state which reacts with the acceptor bead and emits light at 520 to 620 nm. The intensity of the signal is proportional to the level of γ3 associated pThr172 AMPK phosphorylation.
In short, AMPK-α2+β2+γ3 MaxCyte bulk-transfected HEK293AD cells were thawed in growth media (DMEM High glucose+10% FBS) in a collagen-coated T150 flask and the cells were allowed to adhere and grow overnight in a 37° C. incubator. The following day, the cells were harvested and resuspended in plating medium (DMEM Low glucose+10% FBS) at a concentration of 100,000 cells per mL and 50 μL of this cell suspension was added to all wells of a 384-well plate using a Multidrop Combi. The cells were allowed to adhere and grow for 2 days in a 37° C. incubator. On assay day, compounds were diluted in 100% dimethyl sulfoxide (DMSO) in a 11 dose, half log dilution scheme and spotted in the cell plates at 1000× the final concentration. Compound incubations were performed in plating media for 20 minutes. Cells were washed with PBS, lysed and the signal was generated by subsequent additions of RB1 reagent from the kit, 1:1000 CaptSure γ3 labeled antibody in 1× immunoassay buffer, Anti-CaptSure acceptor beads and Streptavitin donor beads at final concentration of […]. The γ3 pThr172 AMPK signal was developed using EnVision™ multilabel reader (Perkin Elmer) using Alphascreen settings. The fluorescence emission was used to calculate the % effect relative to the HPE (30 μM) and ZPE (DMSO). EC50 curves were generated with the ActivityBase software using the XLfit model 205 to determine EC50 and Emax values.
For screening purposes, bulk AMPK-α2+β2+γ3 MaxCyte bulk transfection into HEK293AD cells were generated to support SAR screening as follows.
HEK293AD cells were seeded into 10 flasks at 2.7×10^7 cells per flask. The following day 12 mL of Trypl E dissociation reagent were added to each flask to lift the cells and the cells were then spun at 300×g for 5 minutes. Cells were washed once in MaxCyte EP buffer and then resuspended in MaxCyte EP buffer at 1×10^8 cells per mL. For transfection, 500×10^6 cells in 500 μl MaxCyte EP buffer were placed in a CL1.1 Processing Assembly (electroporation cell) with 1 mg/mL ([…]) of each of the plasmids pcDNA3.1(+)-human AMPK alpha 2, pcDNA3.1(+)-human AMPK beta 2 and pcDNA3.1(+)-human AMPK gamma 3 and the electroporation was carried out on the MaxCyte STX using the HEK293 electroporation protocol. Following electroporation, cells were transferred to a T175 flask containing growth medium (DMEM High glucose+10% FBS) and allowed to recover for 25 minutes, then the cells were resuspended to final volume of 900 mL and distributed into 6XT175 flasks and allowed to adhere and grow overnight in a 37° C. incubator. […]

T1 sequence (P54646 whole entry): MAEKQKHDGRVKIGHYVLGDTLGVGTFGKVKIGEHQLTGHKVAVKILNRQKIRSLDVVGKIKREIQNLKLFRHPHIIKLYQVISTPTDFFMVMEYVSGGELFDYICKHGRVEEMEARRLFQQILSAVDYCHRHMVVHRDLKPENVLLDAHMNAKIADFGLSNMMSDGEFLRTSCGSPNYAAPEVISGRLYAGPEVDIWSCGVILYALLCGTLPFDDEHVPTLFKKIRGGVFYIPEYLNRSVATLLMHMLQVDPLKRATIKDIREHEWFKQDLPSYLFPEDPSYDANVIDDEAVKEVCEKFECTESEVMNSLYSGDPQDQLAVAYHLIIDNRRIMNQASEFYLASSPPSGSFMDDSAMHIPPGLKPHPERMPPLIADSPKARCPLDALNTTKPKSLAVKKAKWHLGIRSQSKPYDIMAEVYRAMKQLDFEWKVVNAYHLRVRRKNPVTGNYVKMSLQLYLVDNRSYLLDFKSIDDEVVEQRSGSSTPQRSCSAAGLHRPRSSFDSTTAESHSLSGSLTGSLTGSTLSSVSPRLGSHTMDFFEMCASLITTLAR
T1 sequence (O43741 whole entry): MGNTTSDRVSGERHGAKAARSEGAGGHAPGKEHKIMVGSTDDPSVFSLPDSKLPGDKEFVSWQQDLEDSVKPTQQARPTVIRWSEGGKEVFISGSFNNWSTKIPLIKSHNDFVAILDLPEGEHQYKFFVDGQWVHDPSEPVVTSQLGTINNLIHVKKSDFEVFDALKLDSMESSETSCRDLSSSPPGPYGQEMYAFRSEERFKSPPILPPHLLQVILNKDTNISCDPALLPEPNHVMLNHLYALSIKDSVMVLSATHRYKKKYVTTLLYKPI
T1 sequence (Q9UGI9 whole entry): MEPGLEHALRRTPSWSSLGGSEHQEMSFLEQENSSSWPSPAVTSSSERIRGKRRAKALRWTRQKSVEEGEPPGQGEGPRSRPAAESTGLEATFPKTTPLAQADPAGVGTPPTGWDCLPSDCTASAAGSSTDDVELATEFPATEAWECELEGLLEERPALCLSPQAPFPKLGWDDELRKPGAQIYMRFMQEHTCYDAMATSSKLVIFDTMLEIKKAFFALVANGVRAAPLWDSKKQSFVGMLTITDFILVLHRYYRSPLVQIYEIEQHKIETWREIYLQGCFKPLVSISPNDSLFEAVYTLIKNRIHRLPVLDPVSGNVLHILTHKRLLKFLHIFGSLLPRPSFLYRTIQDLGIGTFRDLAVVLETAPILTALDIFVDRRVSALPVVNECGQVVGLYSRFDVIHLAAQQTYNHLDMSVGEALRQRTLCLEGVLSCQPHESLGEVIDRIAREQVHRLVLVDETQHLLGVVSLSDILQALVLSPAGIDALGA

Compound | EC50 [nM] | Assay GMean Asy. Max (%) | Emax [%]
Cn1cc(F)c(N2C[C@](C)(c3cccc(Cl)c3F)c3c(cnc(NC4CN(C(=O)C(C)(O)C5CC5)C4)c3F)C2=O)n1 (single isomer, unassigned) [Example 9] | > 55.7 | 118.8 | –
Cn1cc(F)c(N2C[C@](C)(c3cccc(Cl)c3F)c3c(cnc(NC4CN(C(=O)C(C)(O)C5CC5)C4)c3F)C2=O)n1 (single isomer, unassigned) [Example 10] | 21.3 | 89.6 | –
C[C@]1(c2cccc(Cl)c2F)CN(c2ccc([C@H]3COCCN3)cn2)C(=O)c2cnc(NC3CN(C(=O)c4cccnn4)C3)c(F)c21 (single isomer, unassigned) [Example 16] | 759 | – | 75.4
C[C@]1(c2cccc(Cl)c2F)CN(c2ccc([C@@H]3COCCN3)cn2)C(=O)c2cnc(NC3CN(C(=O)c4cccnn4)C3)c(F)c21 (single isomer, unassigned) [Example 17] | 144 | – | 120
Cn1cc(F)c(N2CC(C)(c3ccc(F)c(Cl)c3F)c3c(cnc(NC4CN(C(=O)[C@@H]5C[C@@H]5F)C4)c3F)C2=O)n1 (single isomer, unassigned) [Example 23] | 28.1 | – | 91.4
CN1CCC(C(=O)N2CC[C@@H](Nc3ncc4c(c3F)C(C)(c3cccc(Cl)c3F)CN(c3ncccc3F)C4=O)C2)CC1 (single isomer, unassigned) [Example 24] | 79.5 | – | 139
Cn1cc(F)c(N2CC(C)(c3cccc(Cl)c3F)c3c(cnc(N[C@@H]4CCN(C(=O)N5C[C@@H]6C[C@H]5CO6)C4)c3F)C2=O)n1 (single isomer, unassigned) [Example 25] | 160 | – | 52.2
CC1(c2cccc(Cl)c2F)CN(c2ncccc2F)C(=O)c2cnc(NC3CN(C(=O)CO)C3)nc21 (single isomer, unassigned) [Example 26, 8-(3-Chloro-2-fluorophenyl)-6-(3-fluoropyridin-2-yl)-2-{[1-(hydroxyacetyl)azetidin-3-yl]amino}-8-methyl-7,8-dihydropyrido[4,3-d]pyrimidin-5(6H)-one] | 183 | – | 47.6
CC1(c2cccc(Cl)c2F)CN(c2ncccc2F)C(=O)c2cnc(NC3CN(C(=O)C4(O)CC4)C3)nc21 (single isomer, unassigned) [Example 27, 8-(3-Chloro-2-fluorophenyl)-6-(3-fluoropyridin-2-yl)-2-{[1-(1-hydroxycyclopropane-1-carbonyl)azetidin-3-yl]amino}-8-methyl-7,8-dihydropyrido[4,3-d]pyrimidin-5(6H)-one] | 177 | – | 174
CC1(c2cccc(Cl)c2F)CN(c2ncccc2F)C(=O)c2cnc(NC3CN(C(=O)C4(O)CC4(C)C)C3)nc21 (single isomer, unassigned) [Example 28, 8-(3-Chloro-2-fluorophenyl)-6-(3-fluoropyridin-2-yl)-2-{[1-(1-hydroxy-2,2-dimethylcyclopropane-1-carbonyl)azetidin-3-yl]amino}-8-methyl-7,8-dihydropyrido[4,3-d]pyrimidin-5(6H)-one] | 571 | 98.9 | –
CC1(c2cccc(Cl)c2F)CN(c2ncccc2F)C(=O)c2cnc(NC3CN(C(=O)C4(O)CC4(C)C)C3)nc21 (single isomer, unassigned) [Example 29, 8-(3-Chloro-2-fluorophenyl)-6-(3-fluoropyridin-2-yl)-2-{[1-(1-hydroxy-2,2-dimethylcyclopropane-1-carbonyl)azetidin-3-yl]amino}-8-methyl-7,8-dihydropyrido[4,3-d]pyrimidin-5(6H)-one] | 181 | 216 | –
Cn1cc(F)c(N2CC(C)(c3cccc(Cl)c3F)c3nc(NC4CN(C(=O)[C@@H]5C[C@@H]5F)C4)ncc3C2=O)n1 (single isomer, unassigned) [Example 30] | 740 | – | 178
CC1(c2cccc(Cl)c2F)CN(c2ccc(N)cn2)C(=O)c2cnc(NC3CN(C(=O)[C@@H]4C[C@@H]4F)C3)nc21 (single isomer, unassigned) [Example 31] | 221 | – | 110

From US12637461B2, “Compounds for the activation of AMPK” (PFIZER INC., priority 2022, dated 2026)
